Read-outs that look alike come from different tables or passages of the source. Each block holds one compound with its values, some of them ahead of it.
Key:
somatostatin receptor = target: T1, somatostatin receptor (Rattus norvegicus, UniProt P30680); assay: Competitive binding assay displacing [111In]-DTPA-Octreotide (OctreoScan) on AR42J tumour cells
T1 construct: endogenous in cells; host or cells: AR42J pancreatic tumour cells (whole cells)

[1] = Direct counting of tissue radioactivity (γ-counter), AR42J tumor; parameters: species or system mice; conditions: female, BALB/c nu/nu athymic, mouse, in vivo, iv, total radioactivity; AR42J tumor, after 60 min PET scan; read-out: Tumor radiotracer uptake after 60 min by γ-counting
[2] = Dynamic PET imaging of AR42J tumor bearing mice; conditions: female, BALB/c nu/nu athymic, mouse, in vivo, iv, total radioactivity; AR42J tumor, 60 min, i.v.; read-out: Tumor radiotracer uptake at 60 min by imaging
Text: (§1) Briefly, tail veins were cannulated under general anesthesia (isofluorane).

AR42J tumor = conditions: same tumor model; cited from earlier work
[3] = Description: The octanol/PBS partition coefficients were determined using the shake flask method. Both solvents were presaturated with each other by shaking together for 5 min. To a solution of 500 μL of both octanol and PBS was added 20 μL of radiolabelled ligand in EtOH (n=3). The solutions mixtures were shaken in a rotamixer for 5 minutes. After equilibration the mixtures were centrifuged (10 min at 13,000 rpm) to achieve good separation. Samples from each layer (25 μL) were taken and measured in a γ counter and Log D was calculated according to the formula: log D=log(cpm in octanol layer/cpm in aqueous layer). Log D values were measured using the ^18F-labelled triazole. […] The receptor affinities for [^18F]1b-6b were determined using a competitive binding assay in AR42J tumours cells with [^111In]-OctreoScan as the labeled radiotracer.
AR42J tumor xenografts [4] = assay: Direct counting of tissue radioactivity (γ-counter), AR42J tumor; parameters: species or system mice; conditions: mouse, in vivo
AR42J tumor xenografts [5] = assay: Dynamic PET imaging of AR42J tumor bearing mice; conditions: mouse, in vivo; for Tumor radiotracer uptake at 60 min by imaging: iv
Text: as §1

sstr-2 = sstr-2 (Homo sapiens, UniProt P30874); assay: Calcium flux FLIPR assay, agonist mode, sstr-2 expressing Chem-1 cells
[6] = cited from earlier work
[7] = read-out: Alkyne analogue (a) IC50
[8] = [19F]-triazole, read-out: Triazole analogue (b) IC50

T1 sequence (P30680 whole entry): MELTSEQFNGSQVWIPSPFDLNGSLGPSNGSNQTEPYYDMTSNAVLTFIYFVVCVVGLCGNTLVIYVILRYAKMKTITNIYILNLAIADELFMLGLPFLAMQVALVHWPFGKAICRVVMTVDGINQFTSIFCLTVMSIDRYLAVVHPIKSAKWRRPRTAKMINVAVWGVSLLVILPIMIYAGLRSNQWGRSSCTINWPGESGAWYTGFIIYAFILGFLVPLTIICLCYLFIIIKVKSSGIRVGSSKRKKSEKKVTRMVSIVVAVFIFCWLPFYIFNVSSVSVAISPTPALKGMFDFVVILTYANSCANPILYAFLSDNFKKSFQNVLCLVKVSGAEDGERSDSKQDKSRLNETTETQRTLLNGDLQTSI
sstr-2, sequence (P30874 whole entry): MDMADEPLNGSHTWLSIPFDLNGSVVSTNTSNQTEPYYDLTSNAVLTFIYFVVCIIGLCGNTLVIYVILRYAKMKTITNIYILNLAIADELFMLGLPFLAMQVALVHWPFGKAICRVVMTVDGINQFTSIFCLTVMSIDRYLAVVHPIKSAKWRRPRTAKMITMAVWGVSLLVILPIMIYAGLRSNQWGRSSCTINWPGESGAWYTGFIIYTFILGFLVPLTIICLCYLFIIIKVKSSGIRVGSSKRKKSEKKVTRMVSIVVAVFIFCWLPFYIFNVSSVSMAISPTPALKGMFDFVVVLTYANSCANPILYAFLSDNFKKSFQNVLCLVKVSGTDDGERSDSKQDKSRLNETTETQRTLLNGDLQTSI

Compound: C#CC(=O)NCC(=O)N[C@H](Cc1ccccc1)C(=O)N[C@H]1CSSC[C@@H](C(=O)N[C@H](C(=O)O)[C@@H](C)O)NC(=O)[C@H]([C@@H](C)O)NC(=O)[C@H](CCCCN)NC(=O)[C@@H](Cc2c[nH]c3ccccc23)NC(=O)[C@H](Cc2ccc(O)cc2)NC1=O [3a, G-TOCA]
IC50 (somatostatin receptor; [7]): 1.4 ± 0.1 nM

Compound: C#CCCC(=O)N[C@H](Cc1ccccc1)C(=O)N[C@H]1CSSC[C@@H](C(=O)N[C@H](C(=O)O)[C@@H](C)O)NC(=O)[C@H]([C@@H](C)O)NC(=O)[C@H](CCCCN)NC(=O)[C@@H](Cc2c[nH]c3ccccc23)NC(=O)[C@H](Cc2ccc(O)cc2)NC1=O [4a, E-TOCA]
IC50 (somatostatin receptor; [7]): 1.8 ± 0.8 nM

Compound: C#CC(=O)NCCC(=O)NCC(=O)N[C@H](Cc1ccccc1)C(=O)N[C@H]1CSSC[C@@H](C(=O)N[C@H](C(=O)O)[C@@H](C)O)NC(=O)[C@H]([C@@H](C)O)NC(=O)[C@H](CCCCN)NC(=O)[C@@H](Cc2c[nH]c3ccccc23)NC(=O)[C@H](Cc2ccc(O)cc2)NC1=O [5a, propynoyl-β-Ala-Gly-[Tyr^3]-Octreotate]
IC50 (somatostatin receptor; [7]): 1 ± 0.3 nM

Compound: C[C@@H](O)[C@H](NC(=O)[C@@H]1CSSC[C@H](NC(=O)[C@@H](Cc2ccccc2)NC(=O)CN2CCN(CC(=O)O)CCN(CC(=O)O)CCN(CC(=O)O)CC2)C(=O)N[C@@H](Cc2ccc(O)cc2)C(=O)N[C@H](Cc2c[nH]c3ccccc23)C(=O)N[C@@H](CCCCN)C(=O)N[C@@H]([C@@H](C)O)C(=O)N1)C(=O)O [[^68Ga]DOTA-TATE, [^68Ga]-DOTATATE, metal not drawn, reference compound]
tissue uptake at 1 h [1]: 3.78 ± 0.32 %ID/g
tissue uptake per volume at 1 h [2]: 2.75 ± 0.11 %ID/mL

Compound: C[C@@H](O)[C@@H]1NC(=O)[C@H](CCCCN)NC(=O)[C@@H](Cc2c[nH]c3ccccc23)NC(=O)[C@H](Cc2ccccc2)NC(=O)[C@@H](NC(=O)[C@@H](Cc2ccccc2)NC(=O)CN(CCN(CCN(CC(=O)[O-])CC(=O)O)CC(=O)[O-])CC(=O)[O-])CSSC[C@@H](C(=O)N[C@H](CO)[C@@H](C)O)NC1=O.[111In+3] [[^111In]-DTPA-octreotide]
Tumor uptake reported by Froidevaux et al. (AR42J tumor): 3.03±0.26 % ID/g

Compound: FET-βAG-[W-c-(CTFTYC)K] [6b]
Log D [3]: −1.14
Log D of 18F-triazole [3]: −1.14
Activity/affinity on sstr-2 in words (sstr-2): poor affinity
Tumor radiotracer uptake after 60 min by γ-counting (AR42J tumor xenografts [4]; iv, 1 h): 0.22 ± 0.12 % ID/g
Kidney uptake in words (AR42J tumor xenografts [5]): low
Tumor radiotracer uptake at 60 min by imaging (AR42J tumor xenografts [5]; 1 h): 0.10 ± 0.05 % ID/ml

Compound: [Tyr^3]octreotate
Biological half life [6]: 1.5-2 hours

More lines, now with the values ahead:

IC50 (somatostatin receptor; [7]): 5.1 ± 2.1 nM
Compound: C#CCCC(=O)NCCOCCOCCOCCOCCOCCOCCC(=O)N[C@H](Cc1ccccc1)C(=O)N[C@H]1CSSC[C@@H](C(=O)N[C@H](C(=O)O)[C@@H](C)O)NC(=O)[C@H]([C@@H](C)O)NC(=O)[C@H](CCCCN)NC(=O)[C@@H](Cc2c[nH]c3ccccc23)NC(=O)[C@H](Cc2ccc(O)cc2)NC1=O [2a, E-PEG-TOCA]

Log D [3]: −2.68
Log D of 18F-triazole [3]: −2.68
Tumor radiotracer uptake after 60 min by γ-counting (AR42J tumor xenografts [4]; iv, 1 h): 8.29 ± 1.42 % ID/g
Tumor radiotracer uptake at 60 min by imaging (AR42J tumor xenografts [5]; 1 h): 5.36 ± 0.45 % ID/ml
Compound: FET-G-PEG-TOCA [1b]

Log D [3]: −1.82
Log D of 18F-triazole [3]: −1.83
IC50 (somatostatin receptor; [8]): 4 ± 1.4 nM
Tumor radiotracer uptake after 60 min by γ-counting (AR42J tumor xenografts [4]): 17.04 ± 2.76 % ID/g
Kidney uptake in words (AR42J tumor xenografts [5]): highest
Liver uptake in words (AR42J tumor xenografts [5]): highest liver uptake
Tumor uptake/localization in words (AR42J tumor xenografts [5]): highest tumor uptake
Tumor radiotracer uptake at 60 min by imaging (AR42J tumor xenografts [5]): 11.0 ± 1.49 % ID/ml
Compound: FET-G-TOGA [3b]

Log D [3]: −2.77
Log D of 18F-triazole [3]: −2.77
IC50 (somatostatin receptor; [8]): 13.2 ± 7.8 nM
Tumor radiotracer uptake after 60 min by γ-counting (AR42J tumor xenografts [4]; iv, 1 h): 9.78 ± 2.57 % ID/g
Liver uptake in words (AR42J tumor xenografts [5]): highest liver uptake
Tumor radiotracer uptake at 60 min by imaging (AR42J tumor xenografts [5]; 1 h): 5.14 ± 0.40 % ID/ml
Compound: FETE-PEG-TOGA [2b]

Log D [3]: −1.50
Log D of 18F-triazole [3]: −1.5
IC50 (somatostatin receptor; [8]): 2.9 ± 1.3 nM
Tumor radiotracer uptake after 60 min by γ-counting (AR42J tumor xenografts [4]): 4.50 ± 1.51 % ID/g
Tumor radiotracer uptake at 60 min by imaging (AR42J tumor xenografts [5]): 6.11 ± 1.46 % ID/ml
Compound: FETE-TOGA [4b]

From patent US10201625B2, “Radiolabelled octreotate analogues as PET tracers” (IMPERIAL COLLEGE, priority 2011, dated 2019)
